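Cells were grown in 96-well plates and exposed to each compound for 48 hours at five concentrations; endpoints were interpolated linearly between bracketing concentrations, or set to the highest concentration if not reached. Here, GI50 denotes the concentration required for 50% inhibition of growth.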 The source made the active and inactive calls. Rule as the data show it: active = GI50 up to about 1.1 µM and inactive = higher.
How the values were obtained:
Assay in all cases: NCI-60 cell line screen, 48 h
[1] = tested on: 786-0
[2] = tested on: A549
[3] = tested on: CAKI-1
[4] = tested on: CCRF-CEM
[5] = tested on: EKVX
[6] = tested on: HCC 2998
[7] = tested on: HCT-116
[8] = tested on: HOP-62
[9] = tested on: HT-29
[10] = tested on: K562
[11] = tested on: KM12
[12] = tested on: Malme-3M
[13] = tested on: NCI-H226
[14] = tested on: OVCAR-8
[15] = tested on: SF-295
[16] = tested on: SN12C
[17] = tested on: SNB-19
[18] = tested on: SNB-75
[19] = tested on: MDA-MB-231
[20] = tested on: MDA-N

Measured: GI50

CCC1(C)NN=c2s/c(=C/c3ccc(OC)cc3)c(=O)n2N1 (stereo not drawn)
inactive: [1] > 100 µM | [2] > 100 µM | [3] > 100 µM | [4] > 100 µM | [5] > 100 µM | [6] > 100 µM | [7] > 100 µM | [8] > 100 µM | [9] > 100 µM | [10] > 100 µM | [11] > 100 µM | [12] > 100 µM | [13] > 100 µM | [14] > 100 µM | [15] > 100 µM | [16] > 100 µM | [17] > 100 µM | [18] 38.2 µM

CCN(CC)CCSc1nc(-c2c[nH]c3nc(C)ccc3c2=O)n[nH]1
inactive: [1] > 100 µM | [2] > 100 µM | [3] > 100 µM | [4] > 100 µM | [5] > 100 µM | [7] > 100 µM | [8] > 100 µM | [9] > 100 µM | [10] > 100 µM | [11] > 100 µM | [19] > 100 µM | [20] > 100 µM | [12] > 100 µM | [13] > 100 µM | [14] > 100 µM | [15] > 100 µM | [16] > 100 µM | [17] > 100 µM

N=NCC(=O)OC(COCc1ccccc1)COCc1ccccc1
inactive: [1] > 100 µM | [3] 37.9 µM | [4] 57.8 µM | [5] > 100 µM | [6] > 100 µM | [7] > 100 µM | [8] > 100 µM | [9] > 100 µM | [10] 47 µM | [11] 31.4 µM | [19] > 100 µM | [12] > 100 µM | [13] > 100 µM | [15] 95.5 µM | [16] 80.5 µM | [17] > 100 µM

Cn1c(=O)nc2n(-c3ccc(Cl)c(C(F)(F)F)c3)c3ccccc3nc-2c1=O
inactive: [1] 57 µM | [2] 25.8 µM | [3] 51.4 µM | [4] 30.8 µM | [5] 35.1 µM | [6] 25.6 µM | [7] 27.2 µM | [8] 57.9 µM | [9] 24.3 µM | [10] 35.5 µM | [11] 32.9 µM | [12] 15 µM | [13] > 53.7 µM | [14] 24.9 µM | [15] 44.2 µM | [16] 30.9 µM | [17] 21.9 µM | [18] 94 µM

CCOC(=O)c1c2c(n(C)c1-c1ccccc1)C(=O)C(C)=CC2=O
inactive: [1] 15.2 µM | [2] 12.2 µM | [3] 13.5 µM | [4] 2.51 µM | [5] 5.87 µM | [7] 3.6 µM | [8] 17.3 µM | [9] 5.79 µM | [10] 3.44 µM | [11] 6.04 µM | [19] 2.08 µM | [20] 2 µM | [12] 9.04 µM | [13] 11 µM | [14] 5.7 µM | [15] 19 µM | [16] 7.69 µM | [17] 13.5 µM | [18] 14.9 µM

Cc1oc2nc(N(C)C)n3cnnc3c2c1C
inactive: [1] > 100 µM | [2] > 100 µM | [3] > 100 µM | [4] > 100 µM | [5] > 100 µM | [6] > 100 µM | [7] > 100 µM | [8] > 100 µM | [9] > 100 µM | [10] > 100 µM | [11] > 100 µM | [19] > 100 µM | [13] > 100 µM | [14] > 100 µM | [15] > 100 µM | [16] > 100 µM | [17] > 100 µM | [18] 50.6 µM

NC(=O)NNc1nc(-c2ccccc2)cs1
inactive: [1] > 100 µM | [2] > 100 µM | [3] > 100 µM | [4] 47 µM | [5] > 100 µM | [6] > 100 µM | [7] > 100 µM | [8] > 100 µM | [9] > 100 µM | [10] > 100 µM | [11] > 100 µM | [19] > 100 µM | [12] > 100 µM | [13] > 100 µM | [14] > 100 µM | [15] > 100 µM | [16] > 100 µM | [17] > 100 µM | [18] > 100 µM

Cc1cc(C)n(CN(Cn2nc(C)cc2C)c2ccccc2)n1
inactive: [1] 21.4 µM | [2] 26.8 µM | [3] 20.4 µM | [4] 23.3 µM | [5] 24.7 µM | [7] 19.8 µM | [8] 23.7 µM | [9] 17.6 µM | [10] 15.6 µM | [11] 16 µM | [19] 37.6 µM | [20] 14.5 µM | [12] 22.8 µM | [14] 20.9 µM | [15] 57.9 µM | [16] 35.1 µM | [17] 45.5 µM
